Where a name gives a salt, the structure may show the parent alone.
Tested on: not given
Experiment: not given
Details: prior-art compound, stated in background; cited from earlier work
In the case of 3-Aminopyrazole trimer, the metabolic stability is given as “metabolically unstable”.

Target: T1, amyloid beta (Aβ) 1-42 peptide (Homo sapiens, UniProt P05067)
T1 construct: amyloid beta (Aβ) 1-42 peptide; purchased Bachem
T1 sequence (P05067 672-713 limits assumed): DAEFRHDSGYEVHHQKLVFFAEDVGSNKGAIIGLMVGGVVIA
Experiment: Thioflavin T spectrofluorescence assay, inhibition of Aβ1-42 aggregation
Assay type: biochemical
Details: 330 μM small molecule, 33 μM Aβ1-42 (10:1 molar ratio), 24 hrs at 37° C.; mean ± SD of two independent experiments; read-out: % inhibition
Experimental: A number of the small molecules were tested for their capacity to inhibit the aggregation of amyloid beta (Aβ) 1-42 peptide using a thioflavin T spectrofluorescence assay.
Aβ1-42 lyophilized powder (Bachem) was reconstituted in hexafluoroisopropanol (HFIP) to 1 mM. The peptide solution was sonicated for 15 min at room temperature, agitated overnight, and aliquots were placed into non-siliconized microcentrifuge tubes. The HFIP was then evaporated under a stream of argon. The resulting peptide film was dried under vacuum for 10 min, tightly sealed and stored at −80° C. until used.
To assay for the small molecule-mediated inhibition of Aβ1-42 aggregation, the small molecules were dissolved before each experiment in anhydrous dimethyl sulfoxide (DMSO, Sigma-Aldrich) to reach a concentration of 7.4 mM. Aβ1-42 peptide film was dissolved in DMSO to reach 400 μM. Assay solution in PBS buffer was prepared in non-siliconized incubation tubes to reach the following concentrations: 330 μM small molecule, 33 μM Aβ1-42, 10 μM thioflavin T (ThT), and 12.8% DMSO. Therefore, the final molar ratio of small molecule to Aβ1-42 was 10:1. A positive control without a small molecule was prepared to measure maximum RFU. A negative control without Aβ1-42 was prepared for each small molecule. 3-Aminopyrazole trimer (Trimer) was tested in all assays to ascertain reproducibility between independent experiments. The solutions were incubated for 24 hrs at 37° C., and the spectrofluorescence (relative fluorescence units; RFU) was read in six replicates in black 384-well assay plates (Perkin-Elmer) on a Perkin-Elmer FluoroCount spectrofluorometer. Inhibition of aggregation is expressed as mean % inhibition or ±1 standard deviation (SD) according to the following equation: […]
Cut-off criterium for the selection of functional molecules was defined at 50% inhibition capacity.
The small molecules were evaluated for their capacity to mediate inhibition of Aβ1-42 aggregation at a 10:1 small molecule to Aβ1-42 molar ratio. The results are expressed as mean±standard deviation of two independent experiments.
Work on `Fc1ccc(-c2cc(CNc3cccc(NCc4ccccc4)n3)n[nH]2)cc1` [Compound 2s, N^2-benzyl-N^6-((5-(4-fluorophenyl)-1H-pyrazol-3-yl)methyl)pyridine-2,6-diamine] yielded an inhibition at 330 µM of 55.1 ± 6.4%.
In the case of `Fc1ccc(-c2cc(NCc3cccc(NCc4ccccc4)n3)n[nH]2)cc1` [Compound 2t, N-Benzyl-6-((5-(4-fluorophenyl)-1H-pyrazol-3-ylamino)methyl)pyridin-2-amine], the inhibition at 330 µM is reported as 86.8 ± 2.9%.
Work on `Nc1cccc(NCc2ccc(NCc3ccccc3)nc2)n1` [Compound 2y, N^2-((6-(benzylamino)pyridin-3-yl)methyl)pyridine-2,6-diamine] yielded an inhibition at 330 µM of 57 ± 15.9%.

Same assay, conditions: 24 h
With `Clc1ccc(-c2csc(NCc3cnc(NCc4ccccc4)s3)n2)cc1` [Compound 2ak, N-Benzyl-5-((4-(4-chlorophenyl)thiazol-2-ylamino)methyl)thiazol-2-amine] the inhibition at 330 µM was 37.2 ± 14.8%.
`CNc1ncc(CNc2nccs2)s1` [Compound 2w, N-Methyl-5-((thiazol-2-ylamino)methyl)thiazole-2-amine dihydrochloride] showed an inhibition at 330 µM of 13.9 ± 12.9%.
For `Cc1ccc(-c2csc(NCc3cnc(Nc4ccccn4)s3)n2)cc1` [Compound 2z, N-(Pyridin-2-yl)-5-((4-p-tolylthiazol-2-ylamino)methyl)thiazol-2-amine trihydrochloride], the inhibition at 330 µM was 58.7 ± 3%.

Tested on: not given
Experiment: not given
Details: prior-art compound, stated in background; cited from earlier work
Remark: another data set of the same source
For 3-Aminopyrazole trimer, the carcinogenicity is given as “carcinogenic” and the mutagenicity is given as “mutagenic”.

Tested on: not given
Experiment: not given
Details: not given
`CNc1ncc(CNc2nc(-c3ccc(Cl)cc3)cs2)s1` (as salt: hydrochloride) [Compound 2aa, 4-(4-Chlorophenyl)-N-((2-(methylamino)thiazol-5-yl)methyl)thiazol-2-amine dihydrochloride] showed a melting point of 122 to 123 °C.
For `CCCNc1ncc(CNc2ncc(CNc3nc(-c4ccc(C)cc4)cs3)s2)s1` (as salt: hydrochloride) [Compound 2ad, N-Propyl-5-((5-((4-p-tolylthiazol-2-ylamino)methyl)thiazol-2-ylamino)methyl)thiazol-2-amine trihydrochloride], the melting point was > 135 °C (dec.).
In the case of `c1ccc(CNc2ncc(CNc3nc(Cc4ccccc4)cs3)s2)cc1` (as salt: hydrochloride) [Compound 2ae, 4-Benzyl-N-((2-(benzylamino)thiazol-5-yl)methyl)thiazol-2-amine dihydrochloride], the melting point is reported as 78 to 79 °C.
`CNc1ncc(CNc2nc(Cc3ccccc3)cs2)s1` (as salt: hydrochloride) [Compound 2af, 4-Benzyl-N-((2-(methylamino)thiazol-5-yl)methyl)thiazol-2-amine dihydrochloride] gave a melting point of 126 to 127 °C.
For `c1ccc(CNc2ncc(CNc3ncc(Cc4ccccc4)s3)s2)cc1` (as salt: hydrochloride) [Compound 2ag, 5-Benzyl-N-((2-(benzylamino)thiazol-5-yl)methyl)thiazol-2-amine dihydrochloride], the melting point was 96 to 97 °C.
Compound `CNc1ncc(CNc2ncc(Cc3ccccc3)s2)s1` (as salt: hydrochloride) [Compound 2ah, 5-Benzyl-N-((2-(methylamino)thiazol-5-yl)methyl)thiazol-2-amine dihydrochloride] has a melting point of 76 to 77 °C.
Work on `c1ccc(CNc2ncc(CNc3nc(-c4cccs4)cs3)s2)cc1` (as salt: hydrochloride) [Compound 2al, N-Benzyl-5-((4-(thiophen-2-yl)thiazol-2-ylamino)methyl)thiazol-2-amine dihydrochloride] yielded a melting point of 97 to 99 °C.
Work on `Cc1ccc(-c2cnc(NCc3cnc(NCc4ccccc4)s3)s2)cc1` (as salt: hydrochloride) [Compound 2h, N-Benzyl-5-((5-p-tolylthiazol-2-ylamino)methyl)thiazol-2-amine dihydrochloride] yielded a melting point of 105 to 106 °C.
For `Cc1ccc(-c2csc(NCc3cnc(NCc4ccccc4)s3)n2)cc1` (as salt: hydrochloride) [Compound 2j, N-Benzyl-5-((4-p-tolylthiazol-2-ylamino)methyl)thiazol-2-amine dihydrochloride], the melting point was 106 to 108 °C.
For `Fc1ccc(-c2cc(NCc3cnc(NCc4ccccc4)s3)n[nH]2)cc1` (as salt: hydrochloride) [Compound 2k, N-Benzyl-5-((5-(4-fluorophenyl)-1H-pyrazol-3-ylamino)methyl)thiazol-2-amine dihydrochloride], the melting point was 78 to 80 °C.
`CNc1ncc(CNc2nc(-c3ccc(C)cc3)cs2)s1` (as salt: hydrochloride) [Compound 2n, N-Methyl-5-((4-p-tolylthiazol-2-ylamino)methyl)thiazol-2-amine dihydrochloride] gave a melting point of 114 to 116 °C.
With `Nc1cccc(NCc2ccc(NCc3ccccc3)nc2)n1` (as salt: hydrochloride) [Compound 2y, N^2-((6-(benzylamino)pyridin-3-yl)methyl)pyridine-2,6-diamine] the melting point was 261 to 262 °C.
Work on `Cc1ccc(-c2csc(NCc3cnc(Nc4ccccn4)s3)n2)cc1` (as salt: hydrochloride) [Compound 2z, N-(Pyridin-2-yl)-5-((4-p-tolylthiazol-2-ylamino)methyl)thiazol-2-amine trihydrochloride] yielded a melting point of 169 to 170 °C.
With `Clc1ccc(-c2csc(NCc3cnc(NCc4ccccc4)s3)n2)cc1` [Compound 2ak, N-Benzyl-5-((4-(4-chlorophenyl)thiazol-2-ylamino)methyl)thiazol-2-amine] the melting point was 105 to 106 °C.
With `CCCCNc1cccc(CNc2cc(-c3ccc(F)cc3)[nH]n2)n1` [Compound 2am, N-Butyl-6-((5-(4-fluorophenyl)-1H-pyrazol-3-ylamino)methyl)pyridin-2-amine] the melting point was 93 to 94 °C.

Target: T2, Oregon Green labelled Aβ1-42 (Homo sapiens, UniProt P05067)
T2 construct: DMSO-stock solutions of Oregon Green labelled Aβ1-42 1:1 with deionized water
T2 sequence (P05067 672-713 limits assumed): as above
Experiment: FCS-assay with 5 nM Oregon Green labelled Aβ-peptide (disaggregation of preformed aggregates)
Assay type: biochemical
Details: 100 nM compound
Experimental: In order to analyse for the disaggregating properties of the compounds, preformed aggregates were used, which were induced straight before the FCS-measurement by diluting 500 nM DMSO-stock solutions of Oregon Green labelled Aβ1-42 1:1 with deionized water. The final concentration of Oregon Green labelled Aβ-peptide was 5 nM in 1×PBS and 3% DMSO. In order to improve the reproducibility of the measurements of the concentration dependencies of all samples were prepared fourfold.
In the case of `CCCNc1ccc(NCc2ccc(NCc3ccc(NCCC)nc3)nc2)nc1` [Compound 2c, N^5-Propyl-N^2-((6-((6-(propylamino)pyridin-3-yl)methylamino)pyridin-3-yl)methyl)pyridine-2,5-diamine], the “percentage of the "number of peaks" value obtained for the control reaction without added compound” value is reported as 29.4% and the “percentage of the "peaks x height" value obtained for the control reaction without added compound” value is reported as 26.6%.

Same assay, conditions: 200 nM compound
For `CCCNc1ccc(NCc2ccc(NCc3ccc(NCCC)nc3)nc2)nc1` [Compound 2c, N^5-Propyl-N^2-((6-((6-(propylamino)pyridin-3-yl)methylamino)pyridin-3-yl)methyl)pyridine-2,5-diamine], the “percentage of the "number of peaks" value obtained for the control reaction without added compound” value was 51.2% and the “percentage of the "peaks x height" value obtained for the control reaction without added compound” value was 45.1%.
For `Fc1ccc(-c2cc(NCc3cccc(NCc4ccccc4)n3)n[nH]2)cc1` [Compound 2t, N-Benzyl-6-((5-(4-fluorophenyl)-1H-pyrazol-3-ylamino)methyl)pyridin-2-amine], the “percentage of the "number of peaks" value obtained for the control reaction without added compound” value was 67.2% and the “percentage of the "peaks x height" value obtained for the control reaction without added compound” value was 53.3%.

From patent US8673940B2, “Compounds for the treatment of diseases associated with amyloid or amyloid-like proteins” (AC Immune SA, priority 2006, dated 2014)
